Non-standard residues stand in square brackets, D forms with d. No end group written: not given here. Hyp = O=C(O)[C@@H]1C[C@@H](O)CN1
How the values were obtained:
[1] = target: T1, HAESA ectodomain (residues 20–620) (Arabidopsis thaliana, UniProt P47735); test: Isothermal titration calorimetry of synthetic IDA-family peptides vs. the isolated HAESA ectodomain; type: binding
T1 construct: We purified the HAESA ectodomain (residues 20–620) from baculovirus-infected insect cells; azurocidin signal peptide (N); made in house; host or cells: Trichoplusia ni Tnao38 insect cells (baculovirus, secreted)
Description: Synthetic genes coding for the Arabidopsis thaliana HAESA (residues 20–620) and SERK1 ectodomains (residues 24–213, carrying Asn115→Asp and Asn163→Gln mutations), codon optimized for expression in Trichoplusia ni (Geneart, Germany), were cloned into a modified pBAC-6 transfer vector (Novagen, Billerica, MA), providing an azurocidin signal peptide and a C-terminal TEV (tobacco etch virus protease) cleavable Strep-9xHis tandem affinity tag. Recombinant baculoviruses were generated by co-transfecting transfer vectors with linearised baculovirus DNA (ProFold-ER1, AB vector, San Diego, CA) followed by viral amplification in Spodoptera frugiperda Sf9 cells. […] The purified HAESA ectodomain was incubated with a synthetic IDA peptide (YVPIPPSA-Hyp-SKRHN, the N-terminal Tyr residue was added to allow for peptide quantification by UV absorbance) and the SERK1 ectodomain in 1:1:1.5 molar ratio. […]
ITC experiments were performed using a Nano ITC (TA Instruments, New Castle, DE) with a 1.0 mL standard cell and a 250 μL titration syringe. […] Molar protein concentrations for SERK1 and HAESA were calculated using their molar extinction coefficient and a molecular weight of 27,551 and 74,896 Da, respectively (determined by MALDI-TOF mass spectrometry). […] Data were analyzed using the NanoAnalyze program (version 2.3.6) as provided by the manufacturer.

[2] = system: HAESA and SERK1 ectodomains; test: Analytical size-exclusion chromatography of HAESA – SERK1 ectodomain complex formation with peptide; type: binding, Arabidopsis thaliana; conditions: Superdex 200 HR 10/30, 20 mM citric acid pH 5, 100 mM NaCl; peptide 25 μM; HAESA and SERK1 1:1 molar ratio; UV 280 nm
Protocol: Gel filtration experiments were performed using a Superdex 200 HR 10/30 column (GE Healthcare) pre-equilibrated in 20 mM citric acid (pH 5) and 100 mM NaCl. 100 μL of the isolated HAESA ectodomain (5.5 mg/mL), of the purified SERK1 LRR domain (3 mg/mL) or of mixtures of HAESA and SERK1 (either in the presence or absence of synthetic wild-type IDA, wild-type IDL1 or mutant IDA peptides at a concentration of 25 μM; 10 mg/mL; samples contained HAESA and SERK1 in 1:1 molar ratio) were loaded sequentially onto the column and elution at 0.5 mL/min was monitored by ultraviolet absorbance at 280 nm.

[3] = target: T2, 1:1 HAESA – SERK1 ectodomain mixture (Arabidopsis thaliana, UniProt P47735 20-620; Q94AG2 24-213, Asn115→Asp | Asn163→Gln, N-glycans); test: ITC; HAESA - SERK1 mixture in cell
T2 sequence 1: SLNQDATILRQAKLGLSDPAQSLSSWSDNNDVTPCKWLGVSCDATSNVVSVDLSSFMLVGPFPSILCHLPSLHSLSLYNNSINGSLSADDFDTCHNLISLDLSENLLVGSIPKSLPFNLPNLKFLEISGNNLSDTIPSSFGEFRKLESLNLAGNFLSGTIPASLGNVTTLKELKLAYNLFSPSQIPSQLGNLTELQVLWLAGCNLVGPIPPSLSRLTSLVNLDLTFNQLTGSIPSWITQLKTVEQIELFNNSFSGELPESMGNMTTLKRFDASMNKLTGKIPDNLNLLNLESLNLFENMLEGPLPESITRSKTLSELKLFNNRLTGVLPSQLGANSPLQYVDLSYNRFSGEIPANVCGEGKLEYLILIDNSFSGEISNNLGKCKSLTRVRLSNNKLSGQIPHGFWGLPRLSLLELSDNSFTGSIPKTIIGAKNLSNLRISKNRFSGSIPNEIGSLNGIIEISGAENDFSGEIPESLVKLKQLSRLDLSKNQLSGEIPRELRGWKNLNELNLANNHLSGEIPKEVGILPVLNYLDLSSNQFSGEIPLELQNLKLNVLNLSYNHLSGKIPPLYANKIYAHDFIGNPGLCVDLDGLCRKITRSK
T2 sequence 2: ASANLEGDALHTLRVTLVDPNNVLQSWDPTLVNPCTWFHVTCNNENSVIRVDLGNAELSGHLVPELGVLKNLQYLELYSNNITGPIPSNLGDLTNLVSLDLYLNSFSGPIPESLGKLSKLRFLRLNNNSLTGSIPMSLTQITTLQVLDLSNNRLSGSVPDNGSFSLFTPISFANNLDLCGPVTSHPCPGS

[4] = target: T3, 1:1 HAESA – SERK1 ectodomain mixture (Arabidopsis thaliana, UniProt P47735 20-620; Q94AG2 24-213, Asn115→Asp | Asn163→Gln, N-glycans); test: ITC; 150 μM wild-type or mutant IDA peptide in the syringe, 10 μM of a 1:1 HAESA – SERK1 protein mixture in the cell; 25°C; 20 mM citric acid pH 5.0, 100 mM NaCl; conditions: both partners purified
T3 construct: HAESA, Arabidopsis thaliana, ectodomain residues 20–620; SERK1, Arabidopsis thaliana, ectodomain residues 24–213; they are the content of the ITC cell into which the peptides were titrated; also called HAESA/SERK1 protein solution; HAESA - SERK1 mixture; source: Trichoplusia ni Tnao38 cells (baculovirus), each ectodomain expressed and purified separately, then mixed 1:1; not …
T3 sequence (looked up) 1: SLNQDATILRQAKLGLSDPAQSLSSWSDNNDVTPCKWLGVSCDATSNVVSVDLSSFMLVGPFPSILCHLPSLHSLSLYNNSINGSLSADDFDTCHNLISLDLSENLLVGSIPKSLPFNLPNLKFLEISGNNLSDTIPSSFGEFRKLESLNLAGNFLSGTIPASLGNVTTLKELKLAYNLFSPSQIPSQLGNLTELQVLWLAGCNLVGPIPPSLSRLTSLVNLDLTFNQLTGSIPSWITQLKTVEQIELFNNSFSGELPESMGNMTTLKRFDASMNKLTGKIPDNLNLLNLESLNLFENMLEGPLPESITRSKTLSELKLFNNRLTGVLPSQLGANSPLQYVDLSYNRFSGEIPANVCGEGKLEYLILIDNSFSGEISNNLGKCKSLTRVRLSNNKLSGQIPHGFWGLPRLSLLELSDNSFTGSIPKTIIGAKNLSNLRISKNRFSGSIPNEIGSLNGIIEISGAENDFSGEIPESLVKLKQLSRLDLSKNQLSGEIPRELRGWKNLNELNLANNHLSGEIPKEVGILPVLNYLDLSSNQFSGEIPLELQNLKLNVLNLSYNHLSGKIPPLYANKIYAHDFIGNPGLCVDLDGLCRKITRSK
T3 sequence (looked up) 2: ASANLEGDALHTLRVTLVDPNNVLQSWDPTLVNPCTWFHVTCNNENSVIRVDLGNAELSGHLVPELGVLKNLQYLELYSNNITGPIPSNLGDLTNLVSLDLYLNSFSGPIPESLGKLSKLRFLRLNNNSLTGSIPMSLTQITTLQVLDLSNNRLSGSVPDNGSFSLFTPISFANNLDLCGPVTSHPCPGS

[5] = target: T4, Arabidopsis thaliana HAESA ectodomain (residues 20–620) (Arabidopsis thaliana, UniProt P47735 20-620, N-glycans (glycoprotein of ~75 kDa)); test: ITC
T4 chain: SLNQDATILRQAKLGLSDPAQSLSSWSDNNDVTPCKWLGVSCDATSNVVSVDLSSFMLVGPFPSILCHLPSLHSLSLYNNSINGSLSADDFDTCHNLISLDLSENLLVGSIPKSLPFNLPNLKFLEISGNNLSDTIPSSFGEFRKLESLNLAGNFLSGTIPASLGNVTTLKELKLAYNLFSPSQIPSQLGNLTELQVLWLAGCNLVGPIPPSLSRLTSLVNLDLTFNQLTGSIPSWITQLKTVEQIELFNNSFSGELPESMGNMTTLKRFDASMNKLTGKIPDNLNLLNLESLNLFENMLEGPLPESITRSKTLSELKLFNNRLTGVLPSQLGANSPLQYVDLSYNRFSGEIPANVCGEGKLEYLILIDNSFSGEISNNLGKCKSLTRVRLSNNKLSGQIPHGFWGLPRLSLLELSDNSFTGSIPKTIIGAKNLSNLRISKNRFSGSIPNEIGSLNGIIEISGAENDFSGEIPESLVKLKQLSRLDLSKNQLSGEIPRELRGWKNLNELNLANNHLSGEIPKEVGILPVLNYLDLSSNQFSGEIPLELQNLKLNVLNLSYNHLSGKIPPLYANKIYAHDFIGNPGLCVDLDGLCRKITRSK

“YPIPPSA[Hyp]SKRHNSFVN [IDA-SFVN, C-terminally extended IDA peptide]” was tested, and the “binding to the HAESA ectodomain, in words” value ([1]; ITC) was “cannot bind”.

In the case of “IDA Hyp64P: IDA mutant peptide with Hyp64 replaced with proline (YVPIPPSAPSKRHN)”, the “HAESA – SERK1 complex formation in size exclusion chromatography” value [2] is reported as “no complex formation”.

In the case of `CC[C@H](C)[C@H](NC(=O)[C@@H]1CCCN1C(=O)[C@@H](NC(=O)[C@@H](N)Cc1ccc(O)cc1)C(C)C)C(=O)N1CCC[C@H]1C(=O)N1CCC[C@H]1C(=O)N[C@@H](CO)C(=O)N[C@@H](C)C(=O)N1C[C@H](O)C[C@H]1C(=O)N[C@@H](CO)C(=O)N[C@@H](CCCCN)C(=O)N[C@@H](CCCNC(=N)N)C(=O)N[C@@H](Cc1c[nH]cn1)C(=O)N[C@@H](CC(N)=O)C(=O)O` [IDA], the Kd [1] is reported as 20 ± 0.9 µM.

B1: synthetic IDA peptide YVPIPPSA-Hyp-SKRHN (peptide)
peptide: YVPIPPSA[Hyp]SKRHN
notes: N-terminal Tyr residue added to allow for peptide quantification by UV absorbance; INFLORESCENCE DEFICIENT IN ABSCISSION (IDA), Arabidopsis thaliana; Hyp written as P; Used in ITC and for the HAESA-IDA-SERK1 complex that was crystallised; also called wild-type IDA; IDA wild-type; source: synthetic peptide
With B1 the Kd [3] was 0.35 µM and the “fold higher binding affinity than for HAESA alone” value [4] was ~60 fold.

For YLVPPSG[Hyp]SMRHN [synthetic IDL1 peptide YLVPPSG-Hyp-SMRHN (ITC)], the Kd [5] was 135 µM.
